# According to US20230000816A1, “SODIUM-GLUCOSE LINKED TRANSPORTER INHIBITORS FOR THE MANAGEMENT OF CHRONIC KIDNEY DISEASE, HYPERTENSION, AND HEART FAILURE IN COMPANION ANIMALS” (INCREVET, INC., priority 2019, published 2023):
# Legend:
# [1] = system: human SGLT2 compared to human SGLT1; settings: compared with other SGLT inhibitors; cited from earlier work
# [2] = system: dogs with stage C heart failure; settings: cited from earlier work; for median survival: dogs with stage C heart failure, composite primary endpoint
# [3] = system: client-owned dogs with CKD; settings: cited from earlier work
# [4] = system: cats with CKD; settings: cited from earlier work; for reduction in urinary protein to creatinine ratio: cats, 7, 30, 60, 90, 120 and 180 days
# [5] = system: client-owned cats with heart disease; settings: 151 client-owned cats with heart disease; cited from earlier work
# [6] = system: Sprague-Dawley rats; test: PPAR-γ agonist (pioglitazone)-mediated fluid retention / plasma expansion model, 7 days, drugs in drinking water; type: in vivo, rat
# From the text: It has been recognized in human clinical practice that an undesirable side effect of PPAR-γ agonists of the thiazolidinedione class is fluid retention and edema, which limits their use in patients with congestive heart failure. The mechanism of action of the thiazolidinediones is believed to be through stimulation of expression of the epithelial sodium channel (ENaC) in the kidney, resulting in an increased uptake of sodium ions from the distal tubule. Sodium retention and the associated expansion of extracellular fluid volume are characteristic features of congestive heart failure in multiple species. […] The sodium channel blocker amiloride was delivered in drinking water to a third group of rats as a comparator. Plasma expansion was measured by hematocrit. […] Food weight was recorded to measure consumption over the course of the experiment. […] Full bottles were pre-weighed and the weights recorded to allow consumption to be measured over the course of the experiment. On days 1 and 7, rats were warmed using a heating pad and lightly anesthetized using isoflurane. Using a sterile scalpel blade, a small tail nick was made on the distal one third of the tail. Blood was collected in a heparinized microcapillary tube sealed with putty at one end and stored on ice until centrifugation (5000 rpm, 5 min). Plasma volume was determined using a microhematocrit capillary tube reader card. On day 7, rats, food and water bottles were again weighed and recorded and hematocrits were determined using blood collected by a tail nick.
# [7] = system: diabetic subjects with stage A3 albuminuria; settings: humans, median 2.62 years; cited from earlier work
# [8] = system: dogs with stage B heart failure; settings: cited from earlier work
# [9] = rats, day 1 to day 7, mean ± SEM
# [10] = rats, pioglitazone diet, mean ± SEM
# [11] = rats, relative to day 1, mean ± SEM
smiles,measurement,setting,value
Cc1cc(OCCCNCC(C)(C)C(N)=O)ccc1Cc1c(O[C@@H]2O[C@H](CO)[C@@H](O)[C@H](O)[C@H]2O)n[nH]c1C(C)C [mizagliflozin],selectivity for human SGLT2 compared to human SGLT1 (in words),[1],more active against SGLT1 than SGLT2
CCOC(=O)[C@H](CCc1ccccc1)N[C@H]1CCc2ccccc2N(CC(=O)O)C1=O [benazepril],median survival,[2],140 days
same,difference in renal survival time vs placebo,[3]; 49 client-owned dogs,significance was not realized
same,proteinuria (urinary protein to creatinine ratio),"[3]; dogs, p=0.0032",significantly improved
same,reduction in urinary protein to creatinine ratio,[4],not significant
same,primary endpoint of treatment failure,[5],no benefit
"N=C(N)NC(=O)c1nc(Cl)c(N)nc1N [Amiloride, reference compound]","Plasma volume, Day 7","[6]; rats after 7 days pioglitazone diet, group mean ± SEM",56.6 ± 0.4 % of blood volume
same,"Plasma volume, Day 1","[6]; rats on 0.03% pioglitazone diet, by hematocrit, group mean ± SEM",52.7 ± 0.9 % of blood volume
same,Effect on pioglitazone-mediated plasma expansion (conclusion),"[6]; rats, 7 days",markedly less effective than bexagliflozin
same,"Body Weight (%), Δ (percent mass gain)",[6]; [9],10.8 ± 0.7%
same,"Body Weight (g), Δ",[6]; [9],40.0 ± 2.8 g
same,"Plasma volume, Δ (day 1 to day 7)","[6]; rats, pioglitazone diet, group mean ± SEM",3.9 ± 0.7 % of blood volume
same,"Body Weight (g), Day 1",[6]; [10],370.0 ± 6.0 g
same,"Body Weight (g), Day 7",[6]; [10],410.0 ± 7.7 g
same,"Body Weight (%), Day 1",[6]; [11],100 ± 0%
same,"Body Weight (%), Day 7",[6]; [11],110.8 ± 0.7 %
CCCc1nc2c(C)cc(-c3nc4ccccc4n3C)cc2n1Cc1ccc(-c2ccccc2C(=O)O)cc1 [telmisartan],comparison with benazepril,[4]; cats with CKD,noninferior to benazepril
same,reduction in urinary protein to creatinine ratio,[4],significant at all time points
CCOc1ccc(Cc2cc([C@@H]3O[C@H](SC)[C@@H](O)[C@H](O)[C@H]3O)ccc2Cl)cc1 [sotagliflozin],selectivity for human SGLT2 compared to human SGLT1 (in words),[1],lower selectivity
Cc1ccc([C@@H]2O[C@H](CO)[C@@H](O)[C@H](O)[C@H]2O)cc1Cc1ccc(-c2ccc(F)cc2)s1 [canagliflozin],"risk of composite of end-stage kidney disease, doubling of serum creatinine, or renal or cardiovascular death, lower than placebo",[7],30%
COc1ccc(-c2nc3ccc(C4=NNC(=O)CC4C)cc3[nH]2)cc1 (stereo not shown) [pimobendan],median survival,[2],267 days
same,hazard ratio,"[2]; pimobendan vs benazepril, 95% CI 0.516 to 0.916, p=0.0099",0.688
same,median time to the primary endpoint,"[8]; dogs with stage B heart failure, onset of CHF, cardiac-related death, or euthanasia, 95% CI: 856-NA",1228 days
same,hazard ratio,"[8]; pimobendan vs placebo, 95% CI: 0.47-0.87",0.64
CCc1ccc([C@@H]2O[C@H](CO)[C@@H](O)[C@H](O)[C@H]2O)cc1Cc1ccc2c(c1)OCCO2 [licogliflozin],selectivity for human SGLT2 compared to human SGLT1 (in words),[1],lower selectivity
